The assay deals with PolQ (1-899) (Homo sapiens (Human), UniProt O75417). In words: PolQ ATPase assay (ADP-Glo). The format is biochemical. The note with it: inhibition of ATPase activity of PolQ (1-899), 1 nM enzyme, 100 μM ATP, 150 nM ssDNA, ADP-Glo. On the procedure:
The ability of the compounds of the present disclosure to inhibit ATPase activity of PolQ (1-899) was determined using the assay described below.
PolQ ATPase activity was determined by ADP-Glo assay. 10-point dilution series of compounds were used in a 384 well format for the inhibition assays. PolQ (1-899) (1 nM) in assay buffer (20 mM Tris HCl (pH 8.0), 80 mM KCl, 10 mM MgCl2, 1 mM DTT, 0.01% BSA, 0.01% Tween, 5% glycerol) was transferred to the test wells (20 uL), except the low control wells (20 μL of assay buffer was added to the low control wells). The plate was then incubated at room temperature for 30 min. An equal volume (20 μL) of 100 μM ATP, 150 nM ssDNA containing 50 thymine bases in assay buffer was added to all the test wells. The plates were covered and left to incubate for 60 min. at room temperature before the addition of the ADP Glo detection reagents. After 60 min. incubation, transfer 5 μL reaction mix to another 384-well plate and add 5 μL ADP Glo and plates incubated for 60 min. before addition of 10 μL kinase detection reagent. After the addition of the kinase detection reagent, the plates were covered and incubated for 60 min. and read luminescence on Envision
Percent inhibition was calculated as follows:
[formula] • where “Max” is the high control (DMSO) and “Min” is the no enzyme control.
IC50 values were calculated using a four-parameter logistic curve fit using the following formula: […]
IC50 values were determined by fitting the data to the standard 4 parameters with Hill Slope using GraphPad Prism software.
(In general: ADP-Glo turns the ADP formed in a reaction into a luminescent signal.)

Where only a bound is given, the exact number is not on record here.

Chain of PolQ (1-899) (O75417 1-899): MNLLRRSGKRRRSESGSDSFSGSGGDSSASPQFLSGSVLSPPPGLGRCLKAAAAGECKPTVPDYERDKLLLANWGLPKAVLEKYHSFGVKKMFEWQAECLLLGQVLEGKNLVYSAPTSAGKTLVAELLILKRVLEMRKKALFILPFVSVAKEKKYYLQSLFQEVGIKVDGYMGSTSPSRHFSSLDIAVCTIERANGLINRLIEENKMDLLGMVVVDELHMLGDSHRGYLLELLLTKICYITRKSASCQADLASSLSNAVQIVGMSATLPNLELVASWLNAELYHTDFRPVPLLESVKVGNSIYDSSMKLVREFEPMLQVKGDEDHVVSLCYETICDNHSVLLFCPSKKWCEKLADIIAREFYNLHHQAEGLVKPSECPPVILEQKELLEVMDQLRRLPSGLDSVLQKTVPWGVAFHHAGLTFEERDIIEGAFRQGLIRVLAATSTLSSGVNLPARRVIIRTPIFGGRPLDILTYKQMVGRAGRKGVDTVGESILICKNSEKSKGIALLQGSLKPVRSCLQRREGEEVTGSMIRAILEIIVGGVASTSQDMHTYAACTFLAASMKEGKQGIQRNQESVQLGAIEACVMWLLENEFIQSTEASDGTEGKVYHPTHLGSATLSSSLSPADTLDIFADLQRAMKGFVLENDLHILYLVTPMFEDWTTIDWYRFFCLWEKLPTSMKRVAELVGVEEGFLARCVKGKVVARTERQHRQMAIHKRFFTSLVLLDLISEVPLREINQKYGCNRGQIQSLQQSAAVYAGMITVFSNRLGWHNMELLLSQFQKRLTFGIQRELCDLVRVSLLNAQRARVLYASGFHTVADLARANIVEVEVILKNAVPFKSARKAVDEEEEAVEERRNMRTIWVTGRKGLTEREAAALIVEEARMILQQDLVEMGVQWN

What is called IC50 is the point on the concentration scale where inhibition reaches its midpoint. The low end stands for greater potency, the high end for weaker potency. Consider `COc1ccc(Cl)c(F)c1-c1cc(-c2ccn(C)n2)ncc1C(=O)Nc1nn(CCCCO)c(=O)s1` [Example 30, 4-(3-Chloro-2-fluoro-6-methoxyphenyl)-N-(4-(4-hydroxybutyl)-5-oxo-4,5-dihydro-1,3,4-thiadiazol-2-yl)-6-(1-methyl-1H-pyrazol-3-yl)nicotinamide], for which the IC50 is less than 10 nM.

The values above are taken from US20260034113A1, “THIADIAZOLONE DERIVATIVES, COMPOSITIONS AND USES THEREOF” (Danatlas Pharmaceuticals Co., Ltd., priority 2023, published 2026).
